# Reference: ChEMBL document CHEMBL5257127, “SolS-catalyzed sulfoxidation of labionin to solabionin drives antibacterial activity of solabiomycins” (2023)
# Calls of active or inactive are those of the source. No cut-off for these calls is given here.
# Columns and labels:
# [1] = system: Mycobacterium tuberculosis; assay: Antibacterial activity against Mycobacterium tuberculosis H37Rv assessed as bacterial growth inhibition; format: functional
# [2] = system: Mycolicibacterium smegmatis; assay: Antibacterial activity against Mycolicibacterium smegmatis assessed as bacterial growth inhibition at 20 nmol by paper disc diffusion assay; format: functional, organism-based
# Micrococcus luteus [3] = assay: Antibacterial activity against Micrococcus luteus assessed as bacterial growth inhibition at 20 nmol by paper disc diffusion assay; format: functional, organism-based
# Staphylococcus aureus [4] = assay: Antibacterial activity against Staphylococcus aureus assessed as bacterial growth inhibition at 20 nmol by paper disc diffusion assay; format: functional, organism-based
# Escherichia coli [5] = assay: Antibacterial activity against Escherichia coli assessed as bacterial growth inhibition at 20 nmol by paper disc diffusion assay; format: functional, organism-based
# Escherichia coli [6] = assay: Antibacterial activity against Escherichia coli RFM795 harboring lptD gene mutation assessed as bacterial growth inhibition at 20 nmol by paper disc diffusion assay; format: functional, organism-based
# Streptomyces sp. [7] = assay: Antibacterial activity against Streptomyces sp. assessed as bacterial growth inhibition at 20 nmol by paper disc diffusion assay; format: functional, organism-based
# Streptomyces lydicus = assay: Antibacterial activity against Streptomyces lydicus assessed as bacterial growth inhibition at 20 nmol by paper disc diffusion assay; format: functional, organism-based
# Streptomyces nigrescens = assay: Antibacterial activity against Streptomyces nigrescens HEK616 assessed as bacterial growth inhibition at 20 nmol by paper disc diffusion assay; format: functional, organism-based
# Streptomyces sp. [8] = assay: Antibacterial activity against Streptomyces sp. TP-A0584 assessed as bacterial growth inhibition at 20 nmol by paper disc diffusion assay; format: functional, organism-based
# Candida albicans = assay: Antifungal activity against Candida albicans assessed as fungal growth inhibition at 20 nmol by paper disc diffusion assay; format: functional, organism-based
# Saccharomyces cerevisiae = assay: Antifungal activity against Saccharomyces cerevisiae assessed as fungal growth inhibition at 20 nmol by paper disc diffusion assay; format: functional, organism-based
# [9] = system: Mycolicibacterium smegmatis; assay: Antibacterial activity against Mycolicibacterium smegmatis assessed as bacterial growth inhibition by paper disc diffusion assay; format: functional
# Micrococcus luteus [10] = assay: Antibacterial activity against Micrococcus luteus assessed as bacterial growth inhibition by paper disc diffusion assay; format: functional
# Staphylococcus aureus [11] = assay: Antibacterial activity against Staphylococcus aureus assessed as bacterial growth inhibition by paper disc diffusion assay; format: functional
smiles,measurement,setting,value
C/C=C1/NC(=O)C(NC(=O)CNC(=O)CCCCCCCCCCCCNC(=N)N)CC2(C[S+]([O-])CC(C(=O)O)NC(=O)CNC(=O)CNC2=O)NC(=O)[C@H](C(C)C)NC1=O (stereo not given in full),MIC,[1],0.35 µM
same,Activity,[2],Active
same,Activity,Micrococcus luteus [3],Active
same,Activity,Staphylococcus aureus [4],Active
same,Activity,Escherichia coli [5],Active
same,Activity,Escherichia coli [6],inactive
same,Activity,Streptomyces sp. [7],Active
same,Activity,Streptomyces lydicus,inactive
same,Activity,Streptomyces nigrescens,inactive
same,Activity,Streptomyces sp. [8],Active
same,Activity,Candida albicans,inactive
same,Activity,Saccharomyces cerevisiae,inactive
same,MIC,[9],25.6 µM
same,MIC,Micrococcus luteus [10],25.6 µM
same,MIC,Staphylococcus aureus [11],51.2 µM
C/C=C1/NC(=O)C(NC(=O)CNC(=O)CCCCCCCCCCCCNC(=N)N)CC2(CSCC(C(=O)O)NC(=O)CNC(=O)CNC2=O)NC(=O)[C@H](C(C)C)NC1=O (stereo not given in full),Activity,[2],Active
same,Activity,Micrococcus luteus [3],Active
same,Activity,Staphylococcus aureus [4],Active
same,Activity,Escherichia coli [5],Active
same,Activity,Escherichia coli [6],inactive
same,Activity,Streptomyces sp. [7],Active
same,Activity,Streptomyces lydicus,inactive
same,Activity,Streptomyces nigrescens,inactive
same,MIC,[9],51.2 µM
same,MIC,Micrococcus luteus [10],102 µM
same,MIC,Staphylococcus aureus [11],102 µM
C/C=C1/NC(=O)C(NC(=O)CNC(=O)CCCCCCCCCCCCNC(=N)N)CC2(CSCC(C(=O)O)NC(=O)CNC(=O)CNC2=O)NC(=O)[C@H]([C@@H](C)CC)NC1=O (stereo not given in full),Activity,[2],Active
same,Activity,Micrococcus luteus [3],Active
same,Activity,Staphylococcus aureus [4],Active
same,Activity,Escherichia coli [5],Active
same,Activity,Escherichia coli [6],inactive
same,Activity,Streptomyces sp. [7],Active
same,Activity,Streptomyces lydicus,inactive
same,Activity,Streptomyces nigrescens,inactive
same,MIC,[9],25.6 µM
same,MIC,Micrococcus luteus [10],51.2 µM
same,MIC,Staphylococcus aureus [11],51.2 µM
C/C=C1/NC(=O)C(NC(=O)CNC(=O)CCCCCCCCCCCCNC(=N)N)CC2(C[S+]([O-])CC(C(=O)O)NC(=O)CNC(=O)CNC2=O)NC(=O)[C@H]([C@@H](C)CC)NC1=O (stereo not given in full),MIC,[1],0.35 µM
same,Activity,[2],Active
same,Activity,Micrococcus luteus [3],Active
same,Activity,Staphylococcus aureus [4],Active
same,Activity,Escherichia coli [5],Active
same,Activity,Escherichia coli [6],inactive
same,Activity,Streptomyces sp. [7],Active
same,Activity,Streptomyces lydicus,inactive
same,Activity,Streptomyces nigrescens,inactive
same,Activity,Streptomyces sp. [8],Active
same,Activity,Candida albicans,inactive
same,Activity,Saccharomyces cerevisiae,inactive
same,MIC,[9],6.4 µM
same,MIC,Micrococcus luteus [10],12.8 µM
same,MIC,Staphylococcus aureus [11],12.8 µM
NC[C@H]1O[C@H](O[C@H]2[C@H](O)[C@@H](O[C@H]3O[C@H](CO)[C@@H](O)[C@H](N)[C@H]3O)[C@H](N)C[C@@H]2N)[C@H](O)[C@@H](O)[C@@H]1O [KANAMYCIN],MIC,[9],1.6 µM
same,MIC,Micrococcus luteus [10],12.8 µM
same,MIC,Staphylococcus aureus [11],0.2 µM
